{"source": "patent EP2236138A1", "about": "(priority 2009, dated 2010)", "key": {"D3": {"biological_target": "D3 (Homo sapiens, UniProt P35462)", "sequence (P35462 whole entry)": "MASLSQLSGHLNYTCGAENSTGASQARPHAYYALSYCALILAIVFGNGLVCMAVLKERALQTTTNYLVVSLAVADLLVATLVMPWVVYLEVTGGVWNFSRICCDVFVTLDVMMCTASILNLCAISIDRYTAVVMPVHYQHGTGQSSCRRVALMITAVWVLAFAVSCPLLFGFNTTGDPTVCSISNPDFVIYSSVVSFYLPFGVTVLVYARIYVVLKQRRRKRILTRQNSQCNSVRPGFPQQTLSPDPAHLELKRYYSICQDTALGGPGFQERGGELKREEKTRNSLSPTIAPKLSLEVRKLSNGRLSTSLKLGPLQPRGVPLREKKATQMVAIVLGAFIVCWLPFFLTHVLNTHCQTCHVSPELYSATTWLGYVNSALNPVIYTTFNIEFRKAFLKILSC", "assay": "biochemical", "type": "binding"}, "5HT1B": {"biological_target": "5HT1B (Homo sapiens, UniProt P28222)", "sequence (P28222 whole entry)": "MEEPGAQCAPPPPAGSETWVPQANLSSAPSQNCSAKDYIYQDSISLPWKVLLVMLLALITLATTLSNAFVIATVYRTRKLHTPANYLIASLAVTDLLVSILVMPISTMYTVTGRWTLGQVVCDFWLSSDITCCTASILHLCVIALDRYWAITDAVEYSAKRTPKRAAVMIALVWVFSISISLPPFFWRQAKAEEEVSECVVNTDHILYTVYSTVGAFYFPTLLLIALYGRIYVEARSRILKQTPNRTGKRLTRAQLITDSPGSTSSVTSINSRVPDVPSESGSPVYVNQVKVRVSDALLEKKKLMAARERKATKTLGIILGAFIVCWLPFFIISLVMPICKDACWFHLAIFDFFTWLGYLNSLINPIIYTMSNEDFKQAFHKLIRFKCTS", "assay": "biochemical", "type": "binding"}, "5HT1D": {"biological_target": "5HT1D (Homo sapiens, UniProt P28221)", "sequence (P28221 whole entry)": "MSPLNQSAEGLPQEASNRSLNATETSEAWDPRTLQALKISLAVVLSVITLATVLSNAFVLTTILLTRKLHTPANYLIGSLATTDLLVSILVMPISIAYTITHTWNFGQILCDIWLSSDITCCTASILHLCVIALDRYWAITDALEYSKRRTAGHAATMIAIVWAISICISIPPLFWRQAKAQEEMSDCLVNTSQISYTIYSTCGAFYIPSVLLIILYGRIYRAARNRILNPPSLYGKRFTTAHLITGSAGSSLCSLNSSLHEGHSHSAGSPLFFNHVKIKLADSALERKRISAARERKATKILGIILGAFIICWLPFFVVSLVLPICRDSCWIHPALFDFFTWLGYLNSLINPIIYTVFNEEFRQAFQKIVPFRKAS", "assay": "biochemical", "type": "binding"}, "5HT2B": {"biological_target": "5HT2B (Homo sapiens, UniProt P41595)", "sequence (P41595 whole entry)": "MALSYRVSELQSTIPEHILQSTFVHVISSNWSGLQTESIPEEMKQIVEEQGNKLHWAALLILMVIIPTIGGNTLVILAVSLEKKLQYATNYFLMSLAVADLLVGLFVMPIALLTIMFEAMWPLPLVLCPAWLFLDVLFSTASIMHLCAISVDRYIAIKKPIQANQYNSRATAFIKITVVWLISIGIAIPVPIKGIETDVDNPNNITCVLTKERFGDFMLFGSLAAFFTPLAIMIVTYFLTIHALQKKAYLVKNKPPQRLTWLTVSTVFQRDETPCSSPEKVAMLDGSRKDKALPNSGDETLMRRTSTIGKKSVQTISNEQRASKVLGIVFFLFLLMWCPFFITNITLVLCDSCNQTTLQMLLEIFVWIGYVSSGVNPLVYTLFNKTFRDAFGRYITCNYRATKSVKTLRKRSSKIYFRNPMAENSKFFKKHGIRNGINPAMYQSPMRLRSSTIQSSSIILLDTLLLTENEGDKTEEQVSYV", "assay": "pKi values of test compounds, 5HT2B (Table 1)", "type": "binding"}, "Alpha2A": {"biological_target": "T1, Alpha2A (Homo sapiens, UniProt P08913)", "T1 sequence (P08913 1-465)": "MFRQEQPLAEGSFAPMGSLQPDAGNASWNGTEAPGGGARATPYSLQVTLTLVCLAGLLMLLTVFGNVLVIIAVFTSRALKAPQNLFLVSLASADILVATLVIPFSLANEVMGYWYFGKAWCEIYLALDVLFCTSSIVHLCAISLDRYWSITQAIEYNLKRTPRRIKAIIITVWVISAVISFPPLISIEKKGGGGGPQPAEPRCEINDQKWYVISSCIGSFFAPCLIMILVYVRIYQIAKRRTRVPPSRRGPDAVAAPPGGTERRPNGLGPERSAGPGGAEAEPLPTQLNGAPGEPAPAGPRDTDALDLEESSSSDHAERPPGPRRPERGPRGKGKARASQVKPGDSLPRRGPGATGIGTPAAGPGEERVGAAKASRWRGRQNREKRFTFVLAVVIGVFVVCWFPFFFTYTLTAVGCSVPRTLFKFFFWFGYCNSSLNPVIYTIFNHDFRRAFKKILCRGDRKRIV", "assay": "pKi values of test compounds, Alpha2A (Table 1)", "type": "binding"}, "other 5HT receptors": {"biological_target": "other 5HT receptors", "assay": "pKi value towards other 5HT receptors", "type": "binding"}, "other dopamine receptors": {"biological_target": "other dopamine receptors", "assay": "pKi value towards other dopamine receptors", "type": "binding"}, "[1]": {"test_system": "patients with major depression", "assay": "Semi-naturalistic open label study of combo pipamperone-citalopram in major depression", "type": "in vivo", "from_the_text": "Design: Semi-naturalistic i.e. inclusion of every 'natural' patient in an outpatient practice but without concomitant use of mood enhancing drugs, open label\nPhase: Phase Ila - preliminary Proof of Concept\nLocation: Belgium - Research Centre ANIMA, Alken\nEnd Points : Assessment scale scores, Hamilton Depression Rating Scale 17 items, Reduction, Response, Remission\nMedication: Exclusion of mood stabilisers, antipsychotics (typical and atypical) and other antidepressants […]\nAdverse events are assessed on: body as a whole, central and peripheral nervous system, gastrointestinal, musculoskeletal, psychiatric, respiratory, skin and appendages, vascular and urinary, taking into account discontinued treatment due to adverse events. Laboratory parameters, ECG, bodyweight and vital signs are not measured since this is a naturalistic study."}, "D1": {"biological_target": "D1 (Homo sapiens, UniProt P21728)", "sequence (P21728 whole entry)": "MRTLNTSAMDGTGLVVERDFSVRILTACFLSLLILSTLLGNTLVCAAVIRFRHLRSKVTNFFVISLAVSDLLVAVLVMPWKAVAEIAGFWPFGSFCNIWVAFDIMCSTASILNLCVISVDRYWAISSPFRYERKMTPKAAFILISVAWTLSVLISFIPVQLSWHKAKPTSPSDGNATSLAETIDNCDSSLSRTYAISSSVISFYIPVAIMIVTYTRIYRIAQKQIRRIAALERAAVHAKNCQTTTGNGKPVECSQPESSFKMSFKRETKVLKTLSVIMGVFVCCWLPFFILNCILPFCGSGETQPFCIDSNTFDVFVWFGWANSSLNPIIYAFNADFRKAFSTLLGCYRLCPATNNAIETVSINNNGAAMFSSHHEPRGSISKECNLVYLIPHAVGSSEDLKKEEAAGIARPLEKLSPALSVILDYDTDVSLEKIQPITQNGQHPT", "type": "binding"}, "D2": {"biological_target": "D2 (Homo sapiens, UniProt P14416)", "sequence (P14416 whole entry)": "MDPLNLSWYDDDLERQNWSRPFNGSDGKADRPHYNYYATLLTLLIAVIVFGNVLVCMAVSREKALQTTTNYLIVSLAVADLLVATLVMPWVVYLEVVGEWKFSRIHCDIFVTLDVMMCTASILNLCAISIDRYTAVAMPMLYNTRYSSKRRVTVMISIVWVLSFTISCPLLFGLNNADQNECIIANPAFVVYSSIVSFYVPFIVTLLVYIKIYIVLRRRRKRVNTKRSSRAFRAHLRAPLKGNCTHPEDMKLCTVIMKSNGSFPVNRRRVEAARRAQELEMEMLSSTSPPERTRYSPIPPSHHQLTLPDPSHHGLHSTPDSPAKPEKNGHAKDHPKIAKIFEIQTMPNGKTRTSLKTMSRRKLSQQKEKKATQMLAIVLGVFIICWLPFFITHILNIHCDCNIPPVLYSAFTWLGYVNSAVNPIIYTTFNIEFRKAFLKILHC", "type": "binding"}, "5HT1A": {"biological_target": "T2, 5HT1A (Homo sapiens, UniProt P08908)", "T2 sequence (P08908 1-422)": "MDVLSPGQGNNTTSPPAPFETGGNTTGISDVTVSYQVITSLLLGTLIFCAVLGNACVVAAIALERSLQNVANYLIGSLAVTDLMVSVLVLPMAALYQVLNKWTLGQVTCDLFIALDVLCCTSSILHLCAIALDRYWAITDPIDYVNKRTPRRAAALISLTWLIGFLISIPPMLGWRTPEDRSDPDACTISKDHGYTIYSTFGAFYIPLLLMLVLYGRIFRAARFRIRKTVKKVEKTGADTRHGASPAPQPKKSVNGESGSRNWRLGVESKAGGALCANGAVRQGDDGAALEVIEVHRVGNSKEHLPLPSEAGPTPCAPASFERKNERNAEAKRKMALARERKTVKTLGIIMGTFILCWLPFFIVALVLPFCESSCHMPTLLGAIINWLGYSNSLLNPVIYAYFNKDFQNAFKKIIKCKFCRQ", "type": "binding"}, "5HT2C": {"biological_target": "T3, 5HT2C (Homo sapiens, UniProt P28335)", "T3 sequence (P28335 33-458)": "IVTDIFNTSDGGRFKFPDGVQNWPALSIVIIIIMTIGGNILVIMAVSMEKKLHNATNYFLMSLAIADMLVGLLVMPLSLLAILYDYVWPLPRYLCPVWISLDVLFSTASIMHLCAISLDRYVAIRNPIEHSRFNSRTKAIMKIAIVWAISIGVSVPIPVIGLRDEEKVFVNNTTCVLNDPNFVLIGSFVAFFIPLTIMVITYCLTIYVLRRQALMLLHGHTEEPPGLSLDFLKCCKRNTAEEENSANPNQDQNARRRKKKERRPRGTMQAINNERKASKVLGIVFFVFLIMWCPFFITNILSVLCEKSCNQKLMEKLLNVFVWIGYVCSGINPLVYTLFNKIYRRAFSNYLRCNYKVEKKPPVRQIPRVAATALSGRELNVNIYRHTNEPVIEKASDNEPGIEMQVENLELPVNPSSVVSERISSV", "type": "binding"}, "Alpha1A": {"biological_target": "T4, Alpha1A (Homo sapiens, UniProt P35348)", "T4 sequence (P35348 1-466)": "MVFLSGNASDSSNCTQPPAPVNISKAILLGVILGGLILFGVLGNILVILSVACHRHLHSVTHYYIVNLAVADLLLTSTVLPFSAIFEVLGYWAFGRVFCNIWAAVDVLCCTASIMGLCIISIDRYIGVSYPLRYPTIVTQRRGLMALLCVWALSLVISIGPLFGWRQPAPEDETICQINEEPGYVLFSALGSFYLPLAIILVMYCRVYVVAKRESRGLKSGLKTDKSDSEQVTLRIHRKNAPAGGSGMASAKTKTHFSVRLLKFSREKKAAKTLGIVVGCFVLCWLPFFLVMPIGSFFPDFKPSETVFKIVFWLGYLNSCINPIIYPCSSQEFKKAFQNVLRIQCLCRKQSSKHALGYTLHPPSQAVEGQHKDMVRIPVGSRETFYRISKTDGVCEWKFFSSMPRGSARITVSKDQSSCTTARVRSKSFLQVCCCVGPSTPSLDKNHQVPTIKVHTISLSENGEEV", "type": "binding"}, "5HT6rat": {"biological_target": "5HT6rat (Rattus norvegicus, UniProt P31388)", "sequence (P31388 whole entry)": "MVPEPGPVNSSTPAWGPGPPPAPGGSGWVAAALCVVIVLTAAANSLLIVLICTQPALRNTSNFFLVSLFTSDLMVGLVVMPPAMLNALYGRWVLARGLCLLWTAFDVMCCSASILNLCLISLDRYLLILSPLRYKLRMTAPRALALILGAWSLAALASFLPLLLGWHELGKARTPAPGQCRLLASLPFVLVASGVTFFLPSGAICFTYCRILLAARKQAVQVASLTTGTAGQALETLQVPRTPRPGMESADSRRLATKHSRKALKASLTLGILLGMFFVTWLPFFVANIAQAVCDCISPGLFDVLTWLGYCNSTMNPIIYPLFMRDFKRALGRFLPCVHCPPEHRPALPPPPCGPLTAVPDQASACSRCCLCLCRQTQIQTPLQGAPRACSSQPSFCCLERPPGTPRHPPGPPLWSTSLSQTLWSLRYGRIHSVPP", "assay": "pKi values of test compounds, 5HT6 rat (Table 1)", "type": "binding"}, "Beta1": {"biological_target": "Beta1 (Homo sapiens, UniProt P08588)", "sequence (P08588 whole entry)": "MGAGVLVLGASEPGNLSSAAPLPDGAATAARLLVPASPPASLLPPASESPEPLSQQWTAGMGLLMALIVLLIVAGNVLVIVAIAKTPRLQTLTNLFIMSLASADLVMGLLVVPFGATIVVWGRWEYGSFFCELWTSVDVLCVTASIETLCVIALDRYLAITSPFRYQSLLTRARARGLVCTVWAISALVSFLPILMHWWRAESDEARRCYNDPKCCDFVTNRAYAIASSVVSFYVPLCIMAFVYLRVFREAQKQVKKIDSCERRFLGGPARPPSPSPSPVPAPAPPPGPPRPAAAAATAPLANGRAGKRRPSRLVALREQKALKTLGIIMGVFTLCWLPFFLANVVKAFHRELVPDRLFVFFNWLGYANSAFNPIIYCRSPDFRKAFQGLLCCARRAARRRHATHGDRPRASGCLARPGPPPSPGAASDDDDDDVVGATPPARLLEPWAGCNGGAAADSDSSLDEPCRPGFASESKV", "assay": "pKi values of test compounds, Beta1 (Table 1)", "type": "binding"}, "Beta2": {"biological_target": "Beta2 (Homo sapiens, UniProt P07550)", "sequence (P07550 whole entry)": "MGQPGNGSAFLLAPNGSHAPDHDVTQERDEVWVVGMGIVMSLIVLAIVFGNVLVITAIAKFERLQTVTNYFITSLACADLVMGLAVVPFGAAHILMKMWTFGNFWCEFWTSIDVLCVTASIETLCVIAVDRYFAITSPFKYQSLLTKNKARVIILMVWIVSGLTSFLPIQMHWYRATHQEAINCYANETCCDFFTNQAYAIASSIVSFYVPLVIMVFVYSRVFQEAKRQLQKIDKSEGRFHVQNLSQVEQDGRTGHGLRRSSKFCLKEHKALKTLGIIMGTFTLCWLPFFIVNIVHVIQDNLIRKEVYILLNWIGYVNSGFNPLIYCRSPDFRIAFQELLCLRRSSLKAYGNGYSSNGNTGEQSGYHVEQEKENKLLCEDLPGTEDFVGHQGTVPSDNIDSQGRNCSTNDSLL", "assay": "pKi values of test compounds, Beta2 (Table 1)", "type": "binding"}}, "data": [{"compound": "OC1(c2ccc(Cl)cc2)CCN(Cc2c[nH]c3ccccc23)CC1", "note": "[L741626]", "values": [{"measurement": "Ki", "setting": "D3", "result": "10 to 100", "unit": "nM"}, {"measurement": "Ki", "setting": "5HT1B; read-out: pKi 5HT1B (converted)", "result": "> 1000", "unit": "nM"}, {"measurement": "Ki", "setting": "5HT1D", "result": "> 1000", "unit": "nM"}, {"measurement": "Ki", "setting": "5HT2B", "result": "100 to 1000", "unit": "nM"}, {"measurement": "Ki", "setting": "Alpha2A", "result": "> 1000", "unit": "nM"}]}, {"compound": "NC(=O)C1(N2CCCCC2)CCN(CCCC(=O)c2ccc(F)cc2)CC1", "note": "[Pipamperon, 1'-[3-(p-Fluorobenzoyl)propyl]-[1,4'-bipiperidine]-4'-carboxamide]", "values": [{"measurement": "pKi value towards other 5HT receptors", "setting": "other 5HT receptors", "result": "less than 8"}, {"measurement": "pKi value towards other dopamine receptors", "setting": "other dopamine receptors", "result": "less than 8"}, {"measurement": "Sedative effects of pipamperone", "setting": "[1]; major depression study, pipamperone 2-4 mg/day", "result": "lacking"}, {"measurement": "boosting effect of pipamperone on a SSRI, in this case citalopram", "setting": "[1]; major depression, pipamperone 2-4 mg/day + citalopram 20-40 mg/day PO, 8 weeks", "result": "apparent"}]}, {"compound": "N#Cc1ccc2c(c1)[C@H]1CN(CCCCNC(=O)c3ccc(-c4ccccc4)cc3)C[C@@H]1CO2", "note": "[S33084]", "values": [{"measurement": "pKi D1", "setting": "D1", "result": "6-7"}, {"measurement": "pKi D2", "setting": "D2", "result": "7-8"}, {"measurement": "pKi 5HT1A", "setting": "5HT1A", "result": "<6"}, {"measurement": "pKi 5HT1B", "setting": "5HT1B", "result": "6-7"}, {"measurement": "pKi 5HT1D", "setting": "5HT1D", "result": "6-7"}, {"measurement": "pKi 5HT2B", "setting": "5HT2B", "result": "6-7"}, {"measurement": "pKi 5HT2C", "setting": "5HT2C", "result": "7-8"}, {"measurement": "pKi Alpha1A", "setting": "Alpha1A", "result": "6-7"}, {"measurement": "pKi Alpha2A", "setting": "Alpha2A", "result": "<6"}]}, {"compound": "O=C(C[C@H]1CCN(CCOc2cccc3c2OCCO3)C1)c1ccc(F)cc1", "note": "[S16924]", "values": [{"measurement": "pKi D2", "setting": "D2", "result": "7-8"}, {"measurement": "pKi D3", "setting": "D3", "result": "7-8"}, {"measurement": "pKi 5HT2C", "setting": "5HT2C", "result": "<6"}, {"measurement": "pKi 5HT6rat", "setting": "5HT6rat", "result": "6-7"}, {"measurement": "pKi Beta1", "setting": "Beta1", "result": "<6"}, {"measurement": "pKi Beta2", "setting": "Beta2", "result": "<6"}]}]}
